Reference: patent US7345049B2, “Phenylalanine derivatives” (Ajinomoto Co., Inc., priority 2003, dated 2008)
Where a name gives a salt, the structure may show the parent alone.

Each molecule was assayed against T1, VCAM-1/α4β1 integrin binding (Homo sapiens, UniProt P05556+P13612) (assay: Assay of antagonistic activity to VCAM-1/α4β1 integrin binding under the existence of blood serum (Jurkat cell adhesion to VCAM-1/Fc)). Settings: Jurkat cells, recombinant human VCAM-1/Fc, 50% human blood serum.
T1 construct: Jurkat (ATCC TIB-152), known to express integrin α4β1; endogenous in cells; host or cells: Jurkat (ATCC TIB-152)
Assay type: cell-based
Description: Assay of Antagonistic Activity to VCAM-1/α4β1 Integrin Binding Under the Existence of Blood Serum
The capacity of a test substance antagonistic to the binding of cell strain of human T cells, Jurkat (ATCC TIB-152), known to express integrin α4β1, to VCAM-1 was determined.
Fifty μl/well of a solution (500 ng/ml) of recombinant human VCAM-1/Fc (R & D systems) diluted with buffer A (0.1 M NaHCO3, pH 9.6) was added to a 96-well microtiter plate (Nunc Maxisorp). After the incubation at 4° C. overnight and washing once with PBS, a buffer (buffer B) obtained by diluting Block Ace (Snow Brand Milk Products Co., Ltd.) with PBS to ½ concentration was added in an amount of 150 μl/well. After the incubation at room temperature for 2 hours, buffer B was removed and the plate was washed with PBS once.
Jurkat cells were washed with Dulbecco modified Eagle medium (SIGMA, hereinafter referred to as “DMEM”) once. Then, the cells were again suspended in a binding buffer (DMEM containing 20 mM HEPES, 0.1% BSA, 2 mM MnCl2 and 50% human blood serum (Sigma)) to become 1×10^6 cells/mL.
Sixty μl of a test substance of various concentrations obtained by the dilution with the binding buffer was added to a round-bottom, 96-well plate (IWAKI). Immediately thereafter, 60 μl of the Jurkat cells (1×10^6 cells/ml) were added thereto and shaken on a plate shaker (IKA-Labortechnik, IKA-SCHUTTLER MTS-4) at 1000 rpm for 10 seconds. In 120 μL of the cell suspension to which the test substance was added, each 100 μL thereof was transferred on the VCAM-1/Fc-coated plate and incubated in dark place at room temperature for 60 minutes. After the shaking on the plate shaker at 1000 rpm for 30 seconds, the solution was immediately removed. Then, the unbound cells were removed by washing them with PBS once. A buffer C (PBS containing 0.82% Triton X-100) was added to the plate in an amount of 70 μL/well. After the shaking on the plate shaker at 1000 rpm for 5 minutes, the bound Jurkat cells were lysed. After centrifuging the cells on a plate centrifuge (SIGMA 4-15C) at room temperature at 2500 rpm for 5 minutes, 50 μL of supernatant thereof was transferred to a 96-well microtiter plate (Nunc Maxisorp). Each 50 μL of Substrate Buffer (Promega, CytoTox 96 Non-Radioactive Cytotoxicity Assay) was added thereto, shaken on a plate shaker at 1000 rpm for 10 seconds and reacted in dark place at room temperature for 30 minutes. Then, each 50 μL of Stop Solution (Promega, CytoTox 96 Non-Radioactive Cytotoxicity Assay) was added thereto and shaken on a plate shaker at 1000 rpm for 10 seconds. […] The absorbance thus obtained detects an activity of lactate dehydrogenase (LDH) dissolved in the supernatant of each well. Namely, the absorbance is proportional to the number of remaining Jurkat cells on the plate via the binding to VCAM-1. The test was conducted in duplicate and the binding rate of each test substance in various concentrations was determined while the absorbance of the test substance-free well was determined to be 100% and the absorbance of the Jurkat-cell-free well was determined to be 0%. The concentration for the 50% inhibition of binding, IC50, was calculated.

T1 sequence (P13612 34-1032): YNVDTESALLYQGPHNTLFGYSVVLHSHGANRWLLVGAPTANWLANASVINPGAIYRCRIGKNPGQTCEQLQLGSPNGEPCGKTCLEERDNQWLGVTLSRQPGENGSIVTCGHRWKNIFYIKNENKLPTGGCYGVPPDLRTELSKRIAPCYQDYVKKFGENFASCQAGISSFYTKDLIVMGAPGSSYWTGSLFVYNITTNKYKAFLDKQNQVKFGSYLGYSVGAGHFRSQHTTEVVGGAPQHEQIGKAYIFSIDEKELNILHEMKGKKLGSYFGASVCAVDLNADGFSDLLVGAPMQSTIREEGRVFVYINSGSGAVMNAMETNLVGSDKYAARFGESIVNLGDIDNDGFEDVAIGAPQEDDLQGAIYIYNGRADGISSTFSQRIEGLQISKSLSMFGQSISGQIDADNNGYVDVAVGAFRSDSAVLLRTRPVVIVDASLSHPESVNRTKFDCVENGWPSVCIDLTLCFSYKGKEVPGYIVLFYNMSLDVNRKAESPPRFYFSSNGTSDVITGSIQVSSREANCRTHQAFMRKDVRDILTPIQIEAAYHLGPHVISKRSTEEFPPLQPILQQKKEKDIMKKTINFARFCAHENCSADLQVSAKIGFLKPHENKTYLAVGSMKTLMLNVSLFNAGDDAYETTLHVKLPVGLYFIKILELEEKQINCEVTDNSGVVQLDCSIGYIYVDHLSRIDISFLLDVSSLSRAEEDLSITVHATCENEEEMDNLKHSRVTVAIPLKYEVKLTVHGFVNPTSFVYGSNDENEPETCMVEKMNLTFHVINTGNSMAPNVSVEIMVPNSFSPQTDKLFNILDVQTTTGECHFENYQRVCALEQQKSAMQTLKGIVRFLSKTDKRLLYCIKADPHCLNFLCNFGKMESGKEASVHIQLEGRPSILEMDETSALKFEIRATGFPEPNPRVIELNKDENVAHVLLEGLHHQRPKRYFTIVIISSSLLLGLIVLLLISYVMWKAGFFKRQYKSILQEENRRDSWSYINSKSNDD
T1 sequence (P05556 21-798): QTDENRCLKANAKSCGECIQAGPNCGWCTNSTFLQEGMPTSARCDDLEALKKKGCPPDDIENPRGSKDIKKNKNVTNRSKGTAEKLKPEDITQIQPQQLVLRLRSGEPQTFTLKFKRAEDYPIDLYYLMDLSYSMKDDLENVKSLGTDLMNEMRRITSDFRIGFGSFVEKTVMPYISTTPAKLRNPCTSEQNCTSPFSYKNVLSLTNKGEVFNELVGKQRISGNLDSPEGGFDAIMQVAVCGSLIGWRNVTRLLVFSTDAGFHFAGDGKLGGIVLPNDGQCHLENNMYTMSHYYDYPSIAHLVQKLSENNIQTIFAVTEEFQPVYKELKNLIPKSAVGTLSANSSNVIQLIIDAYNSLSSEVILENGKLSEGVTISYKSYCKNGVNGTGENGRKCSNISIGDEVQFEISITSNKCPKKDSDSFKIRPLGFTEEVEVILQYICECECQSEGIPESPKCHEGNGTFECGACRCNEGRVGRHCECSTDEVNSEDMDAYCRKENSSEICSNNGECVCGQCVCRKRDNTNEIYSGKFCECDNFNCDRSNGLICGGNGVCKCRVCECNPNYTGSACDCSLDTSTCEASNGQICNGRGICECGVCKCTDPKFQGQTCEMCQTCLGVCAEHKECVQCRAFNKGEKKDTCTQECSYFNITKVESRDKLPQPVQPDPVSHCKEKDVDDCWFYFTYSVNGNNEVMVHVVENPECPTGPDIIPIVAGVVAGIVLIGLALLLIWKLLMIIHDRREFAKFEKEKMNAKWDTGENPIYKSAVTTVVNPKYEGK

Row | Molecule | IC50
1 | CC(C)CCNCc1ccc2c(c1)c(=O)n(-c1ccc(C[C@H](NC(=O)c3c(Cl)cccc3Cl)C(=O)O)cc1)c(=O)n2C [Example 196] | 0.0053 µM
2 | CCC(C)NCc1ccc2c(c1)c(=O)n(-c1ccc(C[C@H](NC(=O)c3c(Cl)cccc3Cl)C(=O)O)cc1)c(=O)n2C (some centres unmarked) [Example 198] | 0.0057 µM
3 | CN(C)CCN(C)c1cc2c(cc1F)c(=O)n(-c1ccc(C[C@H](NC(=O)c3c(Cl)cccc3Cl)C(=O)O)cc1)c(=O)n2C [Example 13] | 0.0055 µM
4 | CN1CCN(C)c2cc3c(cc21)c(=O)n(-c1ccc(C[C@H](NC(=O)c2c(Cl)cccc2Cl)C(=O)O)cc1)c(=O)n3C [Example 17] | 0.0229 µM
5 | COCCNc1ccc2c(c1)c(=O)n(-c1ccc(C[C@H](NC(=O)c3c(Cl)cccc3Cl)C(=O)O)cc1)c(=O)n2C [Example 10] | 0.0155 µM
6 | Cn1c(=O)n(-c2ccc(C[C@H](NC(=O)c3c(Cl)cccc3Cl)C(=O)O)cc2)c(=O)c2cc(CO)ccc21 [Example 60] | 0.0255 µM
7 | CCCNCc1ccc2c(=O)n(-c3ccc(C[C@H](NC(=O)c4c(Cl)cccc4Cl)C(=O)O)cc3)c(=O)n(C)c2c1 [Example 145, N-(2,6-dichlorobenzoyl)-4-[1-methyl-7-propylaminomethyl-2,4-quinazoline-dione-3-yl]-L-phenylalanine] | 0.0038 µM
8 | CCCNCCCc1ccc2c(c1)c(=O)n(-c1ccc(C[C@H](NC(=O)c3c(Cl)cccc3Cl)C(=O)O)cc1)c(=O)n2C [Example 209] | 0.0152 µM
9 | Cn1c(=O)n(-c2ccc(C[C@H](NC(=O)c3c(Cl)cccc3Cl)C(=O)O)cc2)c(=O)c2cc(CN3CCCCC3)ccc21 [Example 57] | 0.0166 µM
10 | CCCNCc1ccc2c(c1)c(=O)n(-c1ccc(C[C@H](NC(=O)c3c(Cl)cccc3Cl)C(=O)O)cc1)c(=O)n2C [Example 98] | 0.0181 µM
11 | CCN(CC)CCN(C)c1ccc2c(c1)c(=O)n(-c1ccc(C[C@H](NC(=O)c3c(Cl)cccc3Cl)C(=O)O)cc1)c(=O)n2C [Example 5] | 0.0108 µM
12 | CCN(CC)Cc1ccc2c(=O)n(-c3ccc(C[C@H](NC(=O)c4c(Cl)cccc4Cl)C(=O)O)cc3)c(=O)n(C)c2c1 [Example 146, N-(2,6-dichlorobenzoyl)-4-[1-methyl-7-diethylaminomethyl-2,4-quinazoline-dione-3-yl]-L-phenylalanine] | 0.0079 µM
13 | Cn1c(=O)n(-c2ccc(C[C@H](NC(=O)c3c(Cl)cccc3Cl)C(=O)O)cc2)c(=O)c2ccc(N3CCOCC3)cc21 [Example 39, N-(2,6-dichlorobenzoyl)-4-[1-methyl-7-(morpholine-4-yl)-2,4-quinazoline-dione-3-yl]-L-phenylalanine trifluoroacetate] | 0.0065 µM
14 | CNCCc1ccc2c(c1)c(=O)n(-c1ccc(C[C@H](NC(=O)c3c(Cl)cccc3Cl)C(=O)O)cc1)c(=O)n2C [Example 230, N-(2,6-dichlorobenzoyl)-4-{1-methyl-6-[2-(methylamino)ethyl]-2,4-dioxo-1,2,3,4-tetrahydroquinazoline-3(2H)-yl}-L-phenylalanine] | 0.0117 µM
15 | Cn1c(=O)n(-c2ccc(C[C@H](NC(=O)c3c(Cl)cccc3Cl)C(=O)O)cc2)c(=O)c2cc(CN)ccc21 [Example 191] | 0.0129 µM
16 | CN1CCN(c2ccc3c(c2)c(=O)n(-c2ccc(C[C@H](NC(=O)c4c(Cl)cccc4Cl)C(=O)O)cc2)c(=O)n3C)CC1 [Example 2] | 0.0229 µM
17 | N-(2,6-dichlorobenzoyl)-4-[6-((2S)-2-aminopropoxy)-1-methyl-2,4-quinazoline-dione-3-yl]-L-phenylalanine isopropylester [Example 141] | 0.0122 µM
18 | CCNCCCc1ccc2c(c1)c(=O)n(-c1ccc(C[C@H](NC(=O)c3c(Cl)cccc3Cl)C(=O)O)cc1)c(=O)n2C [Example 208] | 0.0134 µM

Row | Molecule | IC50
19 | CNCc1ccc2c(=O)n(-c3ccc(C[C@H](NC(=O)c4c(Cl)cccc4Cl)C(=O)O)cc3)c(=O)n(C)c2c1 [Example 144, N-(2,6-dichlorobenzoyl)-4-[7-methylaminomethyl-1-methyl-2,4-quinazoline-dione-3-yl]-L-phenylalanine] | 0.0049 µM
20 | Cn1c(=O)n(-c2ccc(C[C@H](NC(=O)c3c(Cl)cccc3Cl)C(=O)O)cc2)c(=O)c2cc(CN3CCOCC3)ccc21 [Example 53] | 0.0233 µM
21 | CC(C)N(C)Cc1ccc2c(c1)c(=O)n(-c1ccc(C[C@H](NC(=O)c3c(Cl)cccc3Cl)C(=O)O)cc1)c(=O)n2C [Example 199] | 0.018 µM
22 | Cn1c(=O)n(-c2ccc(C[C@H](NC(=O)c3c(Cl)cccc3Cl)C(=O)O)cc2)c(=O)c2cc(CNC3CC3)ccc21 [Example 192] | 0.0179 µM
23 | COCc1ccc2c(=O)n(-c3ccc(C[C@H](NC(=O)c4c(Cl)cccc4Cl)C(=O)O)cc3)c(=O)n(C)c2c1 [Example 63] | 0.0108 µM
24 | CCNc1ccc2c(=O)n(-c3ccc(C[C@H](NC(=O)c4c(Cl)cccc4Cl)C(=O)O)cc3)c(=O)n(C)c2c1 [Example 19] | 0.0235 µM
25 | Cn1c(=O)n(-c2ccc(CC(NC(=O)c3c(Cl)cccc3Cl)C(=O)O)cc2)c(=O)c2cc(N3CCOCC3)ccc21 (centres unmarked) [Example 1] | 0.0017 µM
26 | CN(C)CCOc1ccc2c(c1)c(=O)n(-c1ccc(C[C@H](NC(=O)c3c(Cl)cccc3Cl)C(=O)O)cc1)c(=O)n2C [Example 142, N-(2,6-dichlorobenzoyl)-4-[6-(2-dimethylaminoethoxy)-1-methyl-2,4-quinazoline-dione-3-yl]-L-phenylalanine] | 0.0147 µM
27 | CC(C)NCc1ccc2c(c1)c(=O)n(-c1ccc(C[C@H](NC(=O)c3c(Cl)cccc3Cl)C(=O)O)cc1)c(=O)n2C [Example 194] | 0.0069 µM
28 | Cn1c(=O)n(-c2ccc(C[C@H](NC(=O)c3c(Cl)cccc3Cl)C(=O)O)cc2)c(=O)c2cnccc21 [Example 64] | 0.0123 µM
29 | Cn1c(=O)n(-c2ccc(C[C@H](NC(=O)c3c(Cl)cccc3Cl)C(=O)O)cc2)c(=O)c2ccc(CN3CCCC3)cc21 [Example 35, N-(2,6-dichlorobenzoyl)-4-[1-methyl-7-(pyrrolidine-1-ylmethyl)-2,4-quinazoline-dione-3-yl]-L-phenylalanine trifluoroacetate] | 0.0079 µM
30 | Cn1c(=O)n(-c2ccc(C[C@H](NC(=O)c3c(Cl)cccc3Cl)C(=O)O)cc2)c(=O)c2cc(CNCC3CC3)ccc21 [Example 197] | 0.0063 µM
31 | Cn1c(=O)n(-c2ccc(C[C@H](NC(=O)c3c(Cl)cccc3Cl)C(=O)O)cc2)c(=O)c2ncccc21 [Example 47, N-(2,6-dichlorobenzoyl)-4-[1-methyl-2,4-dioxo-1,2,3,4-tetrahydro-3-(2H)pyrido[3,2-d]pyrimidinyl]-L-phenylalanine] | 0.0157 µM
32 | Cn1c(=O)n(-c2ccc(C[C@H](NC(=O)c3c(Cl)cccc3Cl)C(=O)O)cc2)c(=O)c2cc(S(C)(=O)=O)ccc21 [Example 38, N-(2,6-dichlorobenzoyl)-4-[1-methyl-6-(methylsulfonyl)-2,4-quinazoline-dione-3-yl]-L-phenylalanine] | 0.0124 µM
33 | CN(C)CCN(C)c1ccc2c(c1)c(=O)n(-c1ccc(C[C@H](NC(=O)c3c(Cl)cccc3Cl)C(=O)O)cc1)c(=O)n2C [Example 4] | 0.014 µM
34 | CCc1nccn1-c1cc2c(cc1F)c(=O)n(-c1ccc(C[C@H](NC(=O)c3c(Cl)cccc3Cl)C(=O)O)cc1)c(=O)n2C [Example 161] | 0.0165 µM
35 | CCNCc1ccc2c(=O)n(-c3ccc(C[C@H](NC(=O)c4c(Cl)cccc4Cl)C(=O)O)cc3)c(=O)n(C)c2c1 [Example 143, N-(2,6-dichlorobenzoyl)-4-[7-ethylaminomethyl-1-methyl-2,4-quinazoline-dione-3-yl]-L-phenylalanine] | 0.007 µM
